Earlier results as cited in patent publication US20230372421A1, “IMMATURE POMEGRANATE EXTRACT FORMULATIONS” (CONSIGLIO NAZIONALE DELLE RICERCHE, priority 2020, published 2023).

Test system: cells of neuronal origin
Details: Jin, Yu, Wang & Xu, 2016

## O=C1O[C@H]2[C@H](OC(=O)c3cc(O)c(O)c(O)c3)O[C@@H]3COC(=O)c4cc(O)c(O)c(O)c4-c4c(cc(O)c(O)c4O)C(=O)O[C@H]2[C@@H]3OC(=O)c2cc(O)c(O)c3c2C2C1=CC(=O)C(O)(O)C2(O)O3 (stereo partly shown) [granatin B]
  anticancer properties: important anticancer properties
